What was measured:
Settings in all cases: stereoisomer not certain
[1] = RP, Waters ACQUITY UPLC BEH C18, 100 × 2.1 mm, 1.7 µm, 0.1 mL/min, estimated dead time 2.2 min; A: water + 0.045% formic acid + 0.11% ammonium hydroxide, pH 7; B: methanol; gradient (min/%B) 0/5 5/5 25/95 25.1/100 35/100 35.1/5 45/5
[2] = RP, Waters CORTECS T3, 100 × 2.1 mm, 2.7 µm, 0.2 mL/min, estimated dead time 1.1 min; A: water + 0.045% formic acid + 0.11% ammonium hydroxide, pH 7; B: methanol; gradient (min/%B) 0/5 5/5 25/95 25.1/100 35/100 35.1/5 45/5
[3] = RP, Waters ACQUITY UPLC BEH C18, 100 × 2.1 mm, 1.7 µm, 0.1 mL/min, estimated dead time 2.2 min; A: water + 0.1% formic acid, pH 3; B: methanol + 0.1% formic acid, pH 3; gradient (min/%B) 0/5 5/5 25/100 30/100 30.1/5 35/5
[4] = RP, Thermo Scientific Hypercarb, 150 × 2.1 mm, 5 µm, 0.1 mL/min, estimated dead time 3.3 min; A: water + 0.1% formic acid, pH 3; B: methanol + 0.1% formic acid, pH 3; gradient (min/%B) 0/5 5/5 20/100 35/100 35.1/5 45/5
[5] = RP, Waters ACQUITY UPLC BEH C18, 100 × 2.1 mm, 1.7 µm, 0.2 mL/min, estimated dead time 1.1 min; A: water + 0.025% formic acid + 20 mM ammonium acetate + 0.055% ammonium hydroxide, pH 7; B: methanol; gradient (min/%B) 0/5 5/5 25/100 30/100 30.1/5 35/5
[6] = HILIC, Merck SeQuant ZIC-HILIC, 150 × 2.1 mm, 5 µm, 0.75 mL/min, estimated dead time 0.44 min; A: water + 0.1% acetic acid + 10 mM ammonium acetate, pH 4; B: 5% water + 95% acetonitrile + 0.1% acetic acid + 10 mM ammonium acetate, pH 4; gradient (min/%B) 0/95 5/95 20/57 25/57 30/95 40/95
[7] = RP, Waters CORTECS T3, 100 × 2.1 mm, 2.7 µm, 0.3 mL/min, estimated dead time 0.73 min; A: water + 0.1% formic acid, pH 3; B: methanol + 0.1% formic acid, pH 3; gradient (min/%B) 0/0 5/0 25/100 30/100 30.1/0 35/0
[8] = RP, Waters CORTECS T3, 100 × 2.1 mm, 2.7 µm, 0.15 mL/min, estimated dead time 1.5 min; A: water + 0.1% formic acid, pH 3; B: methanol + 0.1% formic acid, pH 3; gradient (min/%B) 0/0 1/0 6/5 30/100 35/100 35.1/0 40/0
[9] = RP, Waters CORTECS T3, 100 × 2.1 mm, 2.7 µm, 0.3 mL/min, estimated dead time 0.73 min; A: water + 0.1% formic acid, pH 3; B: methanol + 0.1% formic acid, pH 3; gradient (min/%B) 0/0 1/0 6/5 30/100 35/100 35.1/0 40/0
[10] = RP, Waters CORTECS T3, 100 × 2.1 mm, 2.7 µm, 0.25 mL/min, estimated dead time 0.88 min; A: water + 0.1% formic acid, pH 3; B: methanol + 0.1% formic acid, pH 3; gradient (min/%B) 0/0 1/0 6/5 30/100 35/100 35.1/0 40/0
[11] = RP, Waters CORTECS T3, 100 × 2.1 mm, 2.7 µm, 0.3 mL/min, estimated dead time 0.73 min; A: water + 0.1% formic acid, pH 3; B: methanol + 0.1% formic acid, pH 3; gradient (min/%B) 0/5 5/5 25/100 30/100 30.1/5 35/5
[12] = RP, Waters CORTECS T3, 100 × 2.1 mm, 2.7 µm, 0.2 mL/min, estimated dead time 1.1 min; A: water + 0.1% formic acid, pH 3; B: methanol + 0.1% formic acid, pH 3; gradient (min/%B) 0/5 5/5 25/95 25.1/100 35/100 35.1/5 45/5
[13] = RP, Waters CORTECS T3, 100 × 2.1 mm, 2.7 µm, 0.2 mL/min, estimated dead time 1.1 min; A: water + 0.1% formic acid, pH 3; B: methanol + 0.1% formic acid, pH 3; gradient (min/%B) 0/0 1/0 6/5 30/100 35/100 35.1/0 40/0
[14] = RP, Waters CORTECS T3, 100 × 2.1 mm, 2.7 µm, 0.3 mL/min, estimated dead time 0.73 min; A: water + 0.1% formic acid, pH 3; B: methanol + 0.1% formic acid, pH 3; gradient (min/%B) 0/5 5/5 25/95 25.1/100 35/100 35.1/5 45/5

Structure (SMILES) | LC retention time [1] | LC retention time [4] | LC retention time [5] | further results
NC1(C(=O)O)CC1 [1-AMINOCYCLOPROPANE-1-CARBOXYLATE] |  | 4.48 min |  | 
C[n+]1cccc(C(N)=O)c1 [1-METHYLNICOTINAMIDE] |  | 4.94 min | 1.35 min | 
O=C(O)CCCC(=O)C(=O)O [2-OXOADIPATE] |  |  |  | LC retention time [6]: 12.9 min
OCC(O)c1ccc(O)c(O)c1 (centres undefined) [3,4-DIHYDROXYPHENYL GLYCOL] |  |  |  | LC retention time [6]: 4.12 min
Nc1c(O)cccc1C(=O)CC(N)C(=O)O (centres undefined) [3-HYDROXYKYNURENINE] |  |  |  | LC retention time [3]: 2.83 min
COc1cc(CCN)ccc1O [3-METHOXYTYRAMINE] | 9.22 min | 20.5 min |  | LC retention time [2]: 4.87 min
Cn1cncc1CCN [3-METHYLHISTAMINE] | 3.44 min | 4.64 min | 1.81 min | LC retention time [2]: 1.73 min
NC(N)=NCCCC(=O)O [4-GUANIDINOBUTANOATE] |  | 13 min | 1.39 min | LC retention time [7]: 0.91 min; LC retention time [8]: 1.8 min; LC retention time [9]: 0.9 min; LC retention time [10]: 1.06 min; LC retention time [3]: 2.71 min
O=C1CCNC(=O)N1 [5,6-DIHYDROURACIL] |  |  |  | LC retention time [3]: 2.76 min
N[C@@H](Cc1c[nH]c2ccc(O)cc12)C(=O)O [5-HYDROXY-L-TRYPTOPHAN] |  |  |  | LC retention time [11]: 2.7 min
NCCCCN=C(N)N [AGMATINE] | 3.67 min |  | 1.44 min | LC retention time [2]: 1.58 min
NCCCNCCCN [BIS(3-AMINOPROPYL)AMINE] |  | 41 min |  | 
C[N+](C)(C)CCO [CHOLINE] |  |  | 1.35 min | 
COC1=C(OC)C(=O)C(CC=C(C)CCC=C(C)CCC=C(C)CCC=C(C)CCC=C(C)CCC=C(C)CCC=C(C)CCC=C(C)CCC=C(C)CCC=C(C)C)=C(C)C1=O [COENZYME Q10] | 37.8 min |  |  | 
CN(CC(=O)O)C(=N)N [CREATINE] |  |  | 1.35 min | 
CN1CC(=O)NC1=N [CREATININE] |  | 4.94 min | 1.39 min | LC retention time [10]: 1.06 min
Nc1ccnc(=O)[nH]1 [CYTOSINE] |  | 13.9 min | 1.44 min | LC retention time [9]: 0.9 min; LC retention time [10]: 1.06 min
OCCNCCO [DIETHANOLAMINE] |  |  | 1.35 min | 
O=C(O)C(O)c1ccc(O)c(O)c1 (centres undefined) [DIHYDROXYMANDELIC ACID] |  |  |  | LC retention time [6]: 4.4 min
NC(N)=NCC(=O)O [GUANIDINOACETATE] |  | 5.04 min |  | 
O=C(O)CNC(=O)c1ccccc1 [HIPPURATE] |  |  |  | LC retention time [3]: 14.1 min
CS(=N)(=O)CCC(N)C(=O)O [L-METHIONINE SULFOXIMINE] |  | 4.77 min |  | 
CN=C(N)N [METHYLGUANIDINE] |  | 4.05 min | 1.39 min | LC retention time [10]: 1.06 min
CC(=O)NC1C(O)CC(O)(C(=O)O)OC1C(O)C(O)CO (centres undefined) [N-ACETYLNEURAMINATE] |  |  |  | LC retention time [6]: 12.9 min
NCCc1ccccc1 [PHENETHYLAMINE] | 20.4 min |  |  | 
C[Se]CCC(N)C(=O)O (centres undefined) [SELENOMETHIONINE] |  |  |  | LC retention time [3]: 4.52 min
O=c1[nH]c(=O)c2ncn(C3OC(CO)C(O)C3O)c2[nH]1 (centres undefined) [XANTHOSINE] |  |  |  | LC retention time [6]: 11.6 min; LC retention time [12]: 11.9 min

More lines, main results first:

LC retention time [1] | LC retention time [4] | LC retention time [5] | Structure (SMILES) | further results
29.1 min |  |  | CCCCCCCCCCCCCC(=O)OCC(O)CO (racemic) [RAC-GLYCEROL 1-MYRISTATE] | LC retention time [2]: 25.4 min; LC retention time [3]: 28.2 min
3.13 min | 4.61 min | 1.44 min | NCCc1cnc[nH]1 [HISTAMINE] | LC retention time [2]: 1.54 min
 | 14 min |  | NC(CCS)C(=O)O (centres undefined) [HOMOCYSTEINE] | 
 | 4.77 min |  | NC(N)=NCCC[C@H](N)C(=O)O [L-ARGININE] | 
 | 4.86 min |  | N[C@@H](CCSC[C@H](N)C(=O)O)C(=O)O [L-CYSTATHIONINE] | 
 | 4.99 min |  | N[C@@H](CSSC[C@H](N)C(=O)O)C(=O)O [L-CYSTINE] | 
10.2 min | 24.8 min |  | N[C@@H](Cc1ccc(O)cc1)C(=O)O [L-TYROSINE] | LC retention time [2]: 5.83 min
 |  | 26.4 min | CC(C)=CCCC(C)C1CCC2(C)C3=C(CCC12C)C1(C)CCC(O)C(C)(C)C1CC3 (centres undefined) [LANOSTEROL] | 
20 min |  |  | NC(=O)CCCCC1CCSS1 (centres undefined) [LIPOAMIDE] | LC retention time [2]: 16 min
 | 4.49 min |  | NC(CCCC(N)C(=O)O)C(=O)O (centres undefined) [LL-2,6-DIAMINOHEPTANEDIOATE] | LC retention time [12]: 2.41 min
34.6 min |  |  | CC(C)=CCCC(C)=CCCC(C)=CCCC(C)=CCC1=C(C)C(=O)c2ccccc2C1=O [MENAQUINONE] | 
 | 4.77 min | 1.88 min | Cn1cncc1CC(N)C(=O)O [N(PAI)-METHYL-L-HISTIDINE] | 
 |  | 1.39 min | CC(=O)NCCCCN [N-ACETYLPUTRESCINE] | LC retention time [8]: 1.8 min; LC retention time [3]: 2.71 min
 | 26.7 min |  | NC(=O)c1ccc[n+](C2OC(COP(=O)([O-])O)C(O)C2O)c1 (centres undefined) [NICOTINAMIDE MONONUCLEOTIDE] | LC retention time [3]: 2.69 min
 | 16.2 min |  | N[C@@H](CCOC(=O)CCC(=O)O)C(=O)O [O-SUCCINYL-L-HOMOSERINE] | LC retention time [13]: 1.34 min; LC retention time [7]: 0.93 min; LC retention time [8]: 1.83 min; LC retention time [14]: 0.9 min; LC retention time [9]: 0.92 min; LC retention time [10]: 1.09 min; LC retention time [3]: 2.74 min
36.8 min |  |  | CCCCCCCCCCCCCCCC(=O)O [PALMITATE] | LC retention time [12]: 33.8 min
29.4 min |  |  | CCCCCCC=CCCCCCCCC(=O)O [PALMITOLEIC ACID] | 
16.1 min | 4.84 min |  | c1ccc2ncccc2c1 [QUINOLINE] | LC retention time [2]: 11.7 min
 | 14.8 min |  | N[C@@H](CSCC(=O)O)C(=O)O [S-CARBOXYMETHYL-L-CYSTEINE] | 
 | 41 min |  | NCCCCNCCCN [SPERMIDINE] | 
37.5 min |  |  | CCCCCCCCC=CCCCCCCCC(=O)NC(COP(=O)([O-])OCC[N+](C)(C)C)C(O)C=CCCCCCCCCCCCCC (centres undefined) [SPHINGOMYELIN (d36:2)] | LC retention time [2]: 28.7 min
3.87 min | 18 min | 1.42 min | Cc1ncc(C[n+]2csc(CCOP(=O)(O)O)c2C)c(N)n1 [THIAMINE MONOPHOSPHATE] | LC retention time [7]: 0.89 min; LC retention time [8]: 1.78 min
 | 19.1 min | 3.78 min | Cc1ncc(C[n+]2csc(CCO)c2C)c(N)n1 [THIAMINE] | LC retention time [7]: 0.89 min; LC retention time [8]: 1.78 min
33.6 min |  |  | C=C1CCC(O)CC1=CC=C1CCCC2(C)C1CCC2C(C)C=CC(C)C(C)C (centres undefined) [VITAMIN D2] | 
